Data as given in PubChem BioAssay (NCI).
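Following 48 hours of exposure in 96-well plates, responses at five concentrations were used to interpolate endpoints linearly. TGI: total growth inhibition.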

Tests used:
Test in all cases: inhibition of tumour cell growth, NCI panel, 48 h
[1] = system: OVCAR-4 ovarian
[2] = system: SF-295 CNS
[3] = system: U251 CNS
[4] = system: LOX IMVI melanoma
[5] = system: HT29 colon
[6] = system: DLD-1 colon
[7] = system: NCI-H23 lung
[8] = system: OVCAR-3 ovarian
[9] = system: TK-10 renal
[10] = system: SNB-19 CNS
[11] = system: KM12 colon
[12] = system: NCI-H226 lung
[13] = system: UACC-257 melanoma
[14] = system: OVCAR-8 ovarian
[15] = system: A549 NSCLC
[16] = system: M14 melanoma
[17] = system: RPMI-8226 leukemia
[18] = system: KM20L2 colon
[19] = system: HL-60(TB) leukemia
[20] = system: SK-MEL-5 melanoma
[21] = system: UACC-62 melanoma
[22] = system: SK-MEL-2 melanoma
[23] = system: IGROV1 ovarian
[24] = system: HOP-92 NSCLC
[25] = system: HOP-62 NSCLC
[26] = system: ACHN renal
[27] = system: XF 498 CNS
[28] = system: 786-0 renal
[29] = system: SK-MEL-28 melanoma
[30] = system: SW-620 colon
[31] = system: SR leukemia
[32] = system: EKVX NSCLC
[33] = system: HCT-116 colon
[34] = system: LXFL 529 NSCLC
[35] = system: M19-MEL melanoma
[36] = system: SNB-78 CNS
[37] = system: HCT-15 colon
[38] = system: HCC-2998 colon
[39] = system: SNB-75 CNS
[40] = system: DMS 114 small cell lung
[41] = system: NCI-H460 lung
[42] = system: UO-31 renal
[43] = system: DMS 273 small cell lung
[44] = system: MOLT-4 leukemia
[45] = system: SF-268 CNS
[46] = system: MALME-3M melanoma
[47] = system: COLO 205 colon
[48] = system: NCI-H522 lung
[49] = system: SN12C renal
[50] = system: RXF 393 renal
[51] = system: CCRF-CEM leukemia
[52] = system: K-562 leukemia
[53] = system: SK-OV-3 ovarian

O=C(CCN1CCCC1)CC(c1ccccc1)c1c(O)c2ccccc2oc1=O (stereo not drawn)
TGI [1]: > 100 µM
TGI [2]: > 100 µM
TGI [3]: > 100 µM
TGI [4]: > 100 µM
TGI [5]: > 100 µM
TGI [6]: > 100 µM
TGI [7]: > 100 µM
TGI [8]: > 100 µM
TGI [9]: > 100 µM
TGI [10]: > 100 µM
TGI [11]: > 100 µM
TGI [12]: > 100 µM
TGI [13]: > 100 µM
TGI [14]: > 100 µM
TGI [15]: > 100 µM
TGI [16]: > 100 µM
TGI [17]: > 100 µM
TGI [18]: > 100 µM
TGI [19]: > 100 µM
TGI [20]: > 100 µM
TGI [21]: > 100 µM
TGI [22]: > 100 µM
TGI [23]: > 100 µM
TGI [24]: 94.8 µM
TGI [25]: > 100 µM
TGI [26]: > 100 µM
TGI [27]: > 100 µM
TGI [28]: > 100 µM
TGI [29]: > 100 µM
TGI [30]: > 100 µM
TGI [31]: > 100 µM
TGI [32]: > 100 µM
TGI [33]: > 100 µM
TGI [34]: > 100 µM
TGI [35]: > 100 µM
TGI [36]: > 100 µM
TGI [37]: > 100 µM
TGI [38]: > 100 µM
TGI [39]: > 100 µM
TGI [40]: > 100 µM
TGI [41]: > 100 µM
TGI [42]: > 100 µM
TGI [43]: > 100 µM
TGI [44]: > 100 µM
TGI [45]: > 100 µM
TGI [46]: > 100 µM
TGI [47]: > 100 µM
TGI [48]: > 100 µM
TGI [49]: > 100 µM
TGI [50]: > 100 µM
TGI [51]: > 100 µM
TGI [52]: > 100 µM
TGI [53]: > 100 µM
